In brackets after ≈: the same amount, converted by molar mass.

The test deals with Burkholderia cenocepacia BC240 (cystic fibrosis isolate, MDR). The test is described as follows: MIC assay. The class given is cell-based. Particulars: Table 6; control compounds.

For the compound `CN(C)[C@@H]1C(O)=C(C(N)=O)C(=O)[C@@]2(O)C(O)=C3C(=O)c4c(O)cccc4C[C@H]3C[C@@H]12` [Sancycline, sancycline], the “MIC BC 240” value is 4 µg/mL (≈ 9.65 µM).

As to `CN(C)c1cc(NC(=O)CNC(C)(C)C)c(O)c2c1C[C@H]1C[C@H]3[C@H](N(C)C)C(O)=C(C(N)=O)C(=O)[C@@]3(O)C(O)=C1C2=O` [Tigecycline, tigecycline], the “MIC BC 240” value turned out to be 16 µg/mL (≈ 27.3 µM).

The values are drawn from patent US10913712B2, “Tetracycline compounds” (Tetraphase Pharmaceuticals, Inc., priority 2012, dated 2021).
